These results are taken from PubChem BioAssay (NCI).

Where “and” joins values, the source holds several entries; their conditions need not be identical. Equal entries are not always repeated.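 Grown in 96-well plates, cells were treated for 48 hours with each compound at five concentrations. Insufficient inhibition: endpoint recorded as highest concentration tested. GI50 is the concentration that inhibits growth by half. TGI is the concentration that stops growth completely.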

Among the test systems are U251 CNS; NCI-H460 lung; NCI-H226 lung; RXF 393 renal; HCT-15 colon; RPMI-8226 leukemia; MOLT-4 leukemia; UACC-62 melanoma; OVCAR-5 ovarian; SF-268 CNS.
What all share (assay): growth of human tumour cells (NCI), 48 h

In the case of `COc1cc(C(=O)c2cnc(-c3cccc4[nH]ccc34)[nH]2)cc(OC)c1OC`, the GI50 in the test with U251 CNS is 0.0603 µM and < 0.01 µM; with NCI-H460 lung, 0.0434 µM and < 0.01 µM; with NCI-H226 lung, 0.169 µM; in the test with RXF 393 renal, 0.113 µM; with HCT-15 colon, 0.0915 µM and < 0.01 µM; with UACC-62 melanoma, 0.0509 µM and < 0.01 µM. In addition, the TGI in the test on U251 CNS is 40 µM; in the test on NCI-H460 lung, > 100 µM; with HCT-15 colon it was > 100 µM; in the test with RPMI-8226 leukemia, 24.3 µM; in the test with MOLT-4 leukemia it was > 100 µM; with UACC-62 melanoma it was 93.6 µM. Also, the TGI in the test with OVCAR-5 ovarian and in the test on SF-268 CNS was > 100 µM throughout.

Turning to `NC1=NN(c2ccccc2)C(=O)C1C(=O)C(=O)Nc1ccc(Cl)c(Cl)c1` (configuration not stated), the TGI in the test on U251 CNS, in the test on NCI-H460 lung, in the test on NCI-H226 lung, in the test on RXF 393 renal, with HCT-15 colon and with RPMI-8226 leukemia was > 100 µM throughout. Besides, the TGI in the test on MOLT-4 leukemia, in the test on UACC-62 melanoma, with OVCAR-5 ovarian and in the test with SF-268 CNS was > 100 µM in each case.

With `COc1cc(C2c3cc4c(cc3C(OC(=O)C[n+]3ccccc3)C3COC(=O)C23)OCO4)cc(OC)c1OC` (configuration not stated), the GI50 in the test with U251 CNS was < 0.021 µM; in the test on NCI-H460 lung it was < 0.0187 µM; with NCI-H226 lung, < 0.01 µM; with RXF 393 renal, < 0.0191 µM; in the test on HCT-15 colon, < 0.0171 µM; with RPMI-8226 leukemia, < 0.0203 µM. Besides, the GI50 was < 0.0197 µM in the test on MOLT-4 leukemia, 10.7 µM with UACC-62 melanoma and < 0.0208 µM in the test on SF-268 CNS. Further, the TGI with U251 CNS, with NCI-H460 lung, in the test with NCI-H226 lung, with RXF 393 renal, in the test with HCT-15 colon and in the test with RPMI-8226 leukemia was > 100 µM each time. In addition, the TGI in the test on MOLT-4 leukemia, in the test on UACC-62 melanoma, in the test with OVCAR-5 ovarian and in the test on SF-268 CNS was > 100 µM each time.

Take `CC(C)COc1nc2c(c(=O)n(C)c(=O)n2C)n1C`: the GI50 in the test with U251 CNS, with NCI-H460 lung, in the test with NCI-H226 lung, in the test on RXF 393 renal, with HCT-15 colon and with RPMI-8226 leukemia was > 100 µM in each case. In addition, the GI50 in the test with MOLT-4 leukemia, in the test with UACC-62 melanoma, in the test with OVCAR-5 ovarian and with SF-268 CNS was > 100 µM each time. Moreover, the TGI with U251 CNS, in the test on NCI-H460 lung, in the test on NCI-H226 lung, in the test on RXF 393 renal, in the test with HCT-15 colon and in the test with RPMI-8226 leukemia was > 100 µM in each case. Further, the TGI with MOLT-4 leukemia, in the test on UACC-62 melanoma, with OVCAR-5 ovarian and with SF-268 CNS was > 100 µM each time.

Turning to `Nc1nc(/C=C\c2ccccc2)nc(N2CCN(c3ccccc3)CC2)n1`, the GI50 is 24.3 µM with U251 CNS; 24.5 µM in the test with NCI-H460 lung; 27.9 µM in the test on NCI-H226 lung; 21.6 µM in the test with RXF 393 renal; 16.3 µM in the test on HCT-15 colon; 25.9 µM with RPMI-8226 leukemia. Moreover, the GI50 is 36.8 µM in the test with MOLT-4 leukemia, 26 µM in the test on UACC-62 melanoma, 58.7 µM in the test with OVCAR-5 ovarian and 42.2 µM in the test on SF-268 CNS. The TGI with U251 CNS was 69.2 µM; with NCI-H460 lung it was > 100 µM; in the test with NCI-H226 lung, 94.5 µM; in the test on RXF 393 renal, 49.2 µM; in the test on HCT-15 colon, 78 µM; with RPMI-8226 leukemia it was > 100 µM. Moreover, the TGI with MOLT-4 leukemia is > 100 µM; with UACC-62 melanoma, 91.6 µM; in the test on OVCAR-5 ovarian, > 100 µM; in the test with SF-268 CNS, > 100 µM.

With `COC(=O)C1C(=O)O[C@@H](c2cc(OC)c(OC)cc2OC)C1C(=O)OC` (mixture of isomers), the TGI in the test on U251 CNS, with NCI-H460 lung, in the test with NCI-H226 lung, in the test on RXF 393 renal, in the test with HCT-15 colon and in the test on RPMI-8226 leukemia was > 100 µM in each case. Moreover, the TGI with MOLT-4 leukemia, with UACC-62 melanoma, in the test on OVCAR-5 ovarian and in the test on SF-268 CNS was > 100 µM in each case.

With `Cc1cc2c(-c3nc4ccccn4c3N)c(O)c(O)cc2c(O)c1-c1c(C)cc2c(-c3nc4ccccn4c3N)c(O)c(O)cc2c1O`, the GI50 with U251 CNS was 0.273 µM; in the test on NCI-H460 lung it was 0.103 µM; in the test with NCI-H226 lung it was 1.44 µM; with RXF 393 renal, 0.682 µM; in the test on HCT-15 colon it was 0.58 µM; in the test on RPMI-8226 leukemia, 0.661 µM. Besides, the GI50 is 1.01 µM in the test with MOLT-4 leukemia, 0.723 µM in the test with UACC-62 melanoma, 1.69 µM in the test with OVCAR-5 ovarian and 0.653 µM in the test on SF-268 CNS. Moreover, the TGI in the test with U251 CNS is > 25 µM; in the test on NCI-H460 lung, 3.11 µM; in the test on NCI-H226 lung it was > 25 µM; with RXF 393 renal it was 18 µM; with HCT-15 colon it was > 25 µM; in the test with RPMI-8226 leukemia, > 25 µM. Moreover, the TGI with MOLT-4 leukemia is > 25 µM; in the test with UACC-62 melanoma, 7.05 µM; with OVCAR-5 ovarian it was > 25 µM; with SF-268 CNS, > 25 µM.

`O=[N+]([O-])c1cc([N+](=O)[O-])c(Nn2c3ccccc3c3ccccc32)c([N+](=O)[O-])c1`: the GI50 was 0.358 µM in the test on U251 CNS; 0.342 µM in the test with NCI-H460 lung; 0.357 µM with NCI-H226 lung; 0.272 µM with RXF 393 renal; 0.377 µM in the test on HCT-15 colon; 0.11 µM in the test on MOLT-4 leukemia. In addition, the GI50 with UACC-62 melanoma is 0.338 µM; with OVCAR-5 ovarian, 0.338 µM; in the test on SF-268 CNS, 0.359 µM. Further, the TGI with U251 CNS is > 100 µM; in the test with NCI-H460 lung it was 13 µM and 1.93 µM; in the test on NCI-H226 lung it was 7.5 µM; with RXF 393 renal, 1.24 µM; with HCT-15 colon, 11.8 µM and 3.97 µM; in the test on RPMI-8226 leukemia, 0.56 µM. For the same compound, the TGI is > 100 µM with MOLT-4 leukemia; 5.67 µM and 1.59 µM with UACC-62 melanoma; 26.7 µM and 13.5 µM in the test with OVCAR-5 ovarian; 39 µM and > 100 µM in the test with SF-268 CNS.
